Experiment: xn = mol fraction of the nth substance listed
Conditions: 101.33 kPa, Liquid, Vibrating tube method

NCCO [2-aminoethan-1-ol] + CO
mass density [kg/m3]
Conditions | 298.15 K | 303.15 K | 308.15 K | 313.15 K | 318.15 K
x1 = 0.012 | – | 787.1 | 782.38 | 777.63 | 772.84
x1 = 0.031 | – | 795.25 | 790.55 | 785.84 | 781.09
x1 = 0.05 | – | 803 | 798.35 | 793.66 | 788.95
x1 = 0.1 | – | 822.49 | 817.92 | 813.31 | 808.68
x1 = 0.15 | – | 840.37 | 835.87 | 831.33 | 826.77
x1 = 0.2002 | – | 857.06 | 852.62 | 848.14 | 843.64
x1 = 0.2501 | – | 872.24 | 867.83 | 863.41 | 858.96
x1 = 0.2974 | – | 885.69 | 881.34 | 876.95 | –
x1 = 0.3502 | – | 899.65 | 895.33 | 891 | –
x1 = 0.4001 | – | 911.58 | 907.3 | 903 | –
x1 = 0.4427 | – | 921.28 | 917.02 | 912.75 | –
x1 = 0.4502 | – | 923.08 | 918.84 | 914.57 | –
x1 = 0.5002 | – | 933.46 | 929.24 | 925 | –
x1 = 0.5501 | – | 943.18 | 938.99 | 934.78 | –
x1 = 0.6001 | 956.54 | 952.39 | 948.22 | 944.04 | –
x1 = 0.6501 | 965.1 | 960.97 | 956.84 | 952.68 | –
x1 = 0.7005 | 973.37 | 969.28 | 965.16 | 961.03 | –
x1 = 0.7479 | 980.32 | 976.24 | 972.15 | 968.04 | –
x1 = 0.8002 | 988.11 | 984.06 | 980 | 975.92 | –
x1 = 0.8502 | 994.53 | 990.5 | 986.45 | 982.4 | –
x1 = 0.8967 | 1000.67 | 996.66 | 992.63 | 988.6 | –
x1 = 0.9501 | 1006.88 | 1002.89 | 998.89 | 994.88 | –
